Experimental data as given in patent US20260373119A1, “NOVEL COMPOUND, AND COMPOSITION FOR PREVENTING OR TREATING HER2-POSITIVE CANCER, COMPRISING SAME” (EWHA UNIVERSITY - INDUSTRY COLLABORATION FOUNDATION, priority 2022, published 2026).

Experiments:
[1] = tested on: HCT15 (HER2-positive colorectal cancer cell line); assay: antiproliferative effect, HCT15; format: cell-based; details: Homo sapiens, HCT-15, 72 hours
Experimental: The antiproliferative effects were measured after treating Compounds 1 to 22 for 72 hours on HCT15 (HER2-positive colorectal cancer cell line), NCI-N87 (HER2-positive gastric cancer cell line), T47D (HER2-negative breast cancer cell line), and HeLa (HER2-negative cervical cancer cell line). As a result, strong antiproliferative effects were generally observed in the NCI-N87 cell line (Table 2).
The antiproliferative effects of the candidate compound, resulting from HER2 inhibition, were evaluated. Specifically, to confirm the anticancer effects of the candidate compound, cancer cells were seeded at a density of 10^4 cells/well in a 96-well cell culture plate for 20 hours. The cells were starved in serum-free media for 4 hours, followed by replacement with media containing the compound at specified concentrations. The cells were then incubated for 72 hours under conditions of 5% CO2 at 37 °C. Cell viability was determined by adding 5 μL of EZ-CytoX to each well and measuring absorbance at 450 nm. The measurements were performed using an ELISA Microplate Reader (VersaMax, Molecular Devices).

[2] = target: T1, MED23-IRF7 PPI (Homo sapiens, UniProt Q9ULK4); assay: immunoprecipitation, MED23-IRF7 PPI; format: cell-based
T1 construct: co-immunoprecipitation of IRF7, probably endogenous
Experimental: NCI-N87 cells from a gastric cancer cell line were seeded in a 100 mm cell culture dish and cultured until they reached 60-70% confluence. The cultured cells were transfected with p3Xflag-myc-CMV26-empty or p3Xflag-myc-CMV26-MED23^WT plasmids using Lipofectamine® 2000 (Invitrogen, USA). After transfection, YK1 (5 μM) was added 12 hours post-transfection, and the cells were cultured for 12 hours. A total of 750 μg of cell lysate was incubated with 20 μL of FLAG-agarose bead slurry (Sigma Aldrich, USA) on a rotator at 4 °C for 4 hours. The sample was centrifuged at 12,000 rpm for 1 minute to precipitate the beads. After removing the supernatant, the remaining beads were washed three times with 200 μL of lysis buffer (RIPA).
After removing the final supernatant, the beads were eluted by boiling with 2× sample buffer at 98 °C for 5 minutes. The immunoprecipitated proteins were loaded, separated by SDS-PAGE, and analyzed by Western blotting.

[3] = tested on: HER2 gene; assay: HER2 gene (mRNA) expression; format: cell-based; details: dose-dependent
Experimental: To further confirm the effects of the candidate compound, […] quantitative analysis was performed. Specifically, RNA was extracted from cells using the FavorPrep Tri-RNA reagent (FAVORGEN Biotech Corp., Taiwan) and reverse-transcribed into complementary DNA (cDNA) using the PrimeScript RT Reagent Kit (Takara Bio Inc., Japan) following the manufacturer's instructions. Quantitative gene analysis was conducted using the SensiFAST SYBR No-ROX kit (Bioline, Canada). PCR was performed using the CFX96™ real-time PCR detection system (Bio-Rad, USA) under the following protocol: 95 °C for 2 minutes, and 27 cycles at 95 °C for 10 seconds, 56 °C for 10 seconds, and 72 °C for 20 seconds. The relative amount of mRNA was determined using the ΔΔCt method, and normalized against GAPDH or ACTIN. […]

[4] = target: ErbB4 (Homo sapiens, UniProt Q15303); assay: kinase profiling, ErbB4; format: biochemical; details: read-out: In vitro kinase inhibitory activity (%)
Experimental: Kinase inhibitory activity of the candidate compound at 10 μM and 25 μM was assessed using Eurofins Kinase Profiling Services. Inhibitory effects on c-RAF, EGFR, ErbB2, ErbB4, and PI3 kinase were analyzed according to the Kinase Profiler Service Assay protocol.

[5] = permeability; format: in vitro ADME
[6] = tested on: TZMB-sensitive cells; assay: treatment of TZMB-sensitive cells; format: cell-based; details: parent BT474 and NCI-N87
Experimental: (§1) The ability of the candidate compound to overcome trastuzumab resistance was evaluated.

[7] = tested on: TZMB-resistant cells; assay: treatment of TZMB-resistant cells; format: cell-based; details: BT474 TR, NCI-N87 TR, JIMT-1
Experimental: as §1

[8] = tested on: JIMT-1 xenograft; assay: JIMT-1 xenograft, tumor growth; format: in vivo, mice; details: 4 mg/kg, intraperitoneal, eight times at 3-day intervals
Experimental: Xenograft mice were generated to evaluate the anticancer effects of the candidate compound. NCI-N87 and JIMT-1 cells (5×10^6 cells), dissolved in 100 μL of 1× phosphate-buffered saline (PBS), were subcutaneously injected into the right flanks of 5-week-old female athymic nude mice (Envigo, USA) or 4-week-old female NOD-SCID mice (Koatech, South Korea). When the tumors reached a volume of 90-100 mm^3, the mice were randomized into designated groups. For the NCI-N87 xenograft, intravenous administration was performed six times at 3-day intervals. For the JIMT-1 xenograft, intraperitoneal administration was performed eight times at 3-day intervals. […] Tumor size changes were monitored until the mean tumor size in the control group reached 2,000-2,500 mm^3. On day 28 for the NCI-N87 xenograft and day 46 for the JIMT-1 xenograft, the mice were sacrificed, and tumors were excised to determine relative tumor sizes. Tumor length (L) and width (W) were measured with calipers, and tumor volume was calculated using the formula: […]

[9] = JIMT-1 xenograft, body weight; format: in vivo, mice; details: 4 mg/kg
Experimental: Xenograft mice were generated to evaluate the anticancer effects of the candidate compound. […] When the tumors reached a volume of 90-100 mm^3, the mice were randomized into designated groups. […] For the JIMT-1 xenograft, intraperitoneal administration was performed eight times at 3-day intervals. […] Tumor size changes were monitored until the mean tumor size in the control group reached 2,000-2,500 mm^3. On day 28 for the NCI-N87 xenograft and day 46 for the JIMT-1 xenograft, the mice were sacrificed, and tumors were excised to determine relative tumor sizes. Tumor length (L) and width (W) were measured with calipers, and tumor volume was calculated using the formula:
To assess resistance-avoidance effects in vivo, JIMT-1 xenograft mice were treated with 4 mg/kg of the candidate compound or TZMB.

Sequence of ErbB4 (Q15303 26-1308): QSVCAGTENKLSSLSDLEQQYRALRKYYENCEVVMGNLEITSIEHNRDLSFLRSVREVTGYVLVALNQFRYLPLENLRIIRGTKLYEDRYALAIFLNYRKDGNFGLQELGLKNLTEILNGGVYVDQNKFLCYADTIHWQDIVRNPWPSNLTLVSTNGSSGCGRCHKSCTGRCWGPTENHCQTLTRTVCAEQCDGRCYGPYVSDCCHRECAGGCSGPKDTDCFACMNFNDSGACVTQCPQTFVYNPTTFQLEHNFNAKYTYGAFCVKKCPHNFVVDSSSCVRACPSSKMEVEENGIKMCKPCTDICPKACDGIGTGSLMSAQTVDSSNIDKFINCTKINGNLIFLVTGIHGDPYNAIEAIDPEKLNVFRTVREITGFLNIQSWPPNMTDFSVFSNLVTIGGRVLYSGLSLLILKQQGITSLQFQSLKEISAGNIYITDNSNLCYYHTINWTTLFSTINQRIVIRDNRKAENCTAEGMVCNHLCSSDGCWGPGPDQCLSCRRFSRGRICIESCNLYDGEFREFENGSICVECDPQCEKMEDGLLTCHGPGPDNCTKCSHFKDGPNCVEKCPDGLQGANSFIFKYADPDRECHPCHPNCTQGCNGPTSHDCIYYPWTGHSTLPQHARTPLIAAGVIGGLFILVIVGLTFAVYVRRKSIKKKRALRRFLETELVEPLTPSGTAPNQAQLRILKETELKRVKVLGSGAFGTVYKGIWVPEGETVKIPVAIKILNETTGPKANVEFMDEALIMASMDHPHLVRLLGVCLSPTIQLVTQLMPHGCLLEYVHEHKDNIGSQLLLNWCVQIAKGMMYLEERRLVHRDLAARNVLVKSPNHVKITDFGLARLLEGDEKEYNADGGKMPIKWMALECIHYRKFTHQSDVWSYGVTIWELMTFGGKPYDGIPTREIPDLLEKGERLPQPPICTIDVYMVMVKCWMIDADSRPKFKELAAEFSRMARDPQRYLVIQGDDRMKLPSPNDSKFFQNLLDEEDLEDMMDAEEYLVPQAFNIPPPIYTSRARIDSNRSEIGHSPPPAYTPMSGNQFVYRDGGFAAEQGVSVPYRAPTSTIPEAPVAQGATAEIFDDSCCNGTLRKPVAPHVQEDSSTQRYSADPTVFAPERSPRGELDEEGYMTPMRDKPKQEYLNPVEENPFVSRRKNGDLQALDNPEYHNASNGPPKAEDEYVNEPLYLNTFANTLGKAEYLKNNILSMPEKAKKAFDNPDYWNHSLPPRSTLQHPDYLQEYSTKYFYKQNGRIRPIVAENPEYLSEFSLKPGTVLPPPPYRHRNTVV
T1 sequence (Q9ULK4 whole entry): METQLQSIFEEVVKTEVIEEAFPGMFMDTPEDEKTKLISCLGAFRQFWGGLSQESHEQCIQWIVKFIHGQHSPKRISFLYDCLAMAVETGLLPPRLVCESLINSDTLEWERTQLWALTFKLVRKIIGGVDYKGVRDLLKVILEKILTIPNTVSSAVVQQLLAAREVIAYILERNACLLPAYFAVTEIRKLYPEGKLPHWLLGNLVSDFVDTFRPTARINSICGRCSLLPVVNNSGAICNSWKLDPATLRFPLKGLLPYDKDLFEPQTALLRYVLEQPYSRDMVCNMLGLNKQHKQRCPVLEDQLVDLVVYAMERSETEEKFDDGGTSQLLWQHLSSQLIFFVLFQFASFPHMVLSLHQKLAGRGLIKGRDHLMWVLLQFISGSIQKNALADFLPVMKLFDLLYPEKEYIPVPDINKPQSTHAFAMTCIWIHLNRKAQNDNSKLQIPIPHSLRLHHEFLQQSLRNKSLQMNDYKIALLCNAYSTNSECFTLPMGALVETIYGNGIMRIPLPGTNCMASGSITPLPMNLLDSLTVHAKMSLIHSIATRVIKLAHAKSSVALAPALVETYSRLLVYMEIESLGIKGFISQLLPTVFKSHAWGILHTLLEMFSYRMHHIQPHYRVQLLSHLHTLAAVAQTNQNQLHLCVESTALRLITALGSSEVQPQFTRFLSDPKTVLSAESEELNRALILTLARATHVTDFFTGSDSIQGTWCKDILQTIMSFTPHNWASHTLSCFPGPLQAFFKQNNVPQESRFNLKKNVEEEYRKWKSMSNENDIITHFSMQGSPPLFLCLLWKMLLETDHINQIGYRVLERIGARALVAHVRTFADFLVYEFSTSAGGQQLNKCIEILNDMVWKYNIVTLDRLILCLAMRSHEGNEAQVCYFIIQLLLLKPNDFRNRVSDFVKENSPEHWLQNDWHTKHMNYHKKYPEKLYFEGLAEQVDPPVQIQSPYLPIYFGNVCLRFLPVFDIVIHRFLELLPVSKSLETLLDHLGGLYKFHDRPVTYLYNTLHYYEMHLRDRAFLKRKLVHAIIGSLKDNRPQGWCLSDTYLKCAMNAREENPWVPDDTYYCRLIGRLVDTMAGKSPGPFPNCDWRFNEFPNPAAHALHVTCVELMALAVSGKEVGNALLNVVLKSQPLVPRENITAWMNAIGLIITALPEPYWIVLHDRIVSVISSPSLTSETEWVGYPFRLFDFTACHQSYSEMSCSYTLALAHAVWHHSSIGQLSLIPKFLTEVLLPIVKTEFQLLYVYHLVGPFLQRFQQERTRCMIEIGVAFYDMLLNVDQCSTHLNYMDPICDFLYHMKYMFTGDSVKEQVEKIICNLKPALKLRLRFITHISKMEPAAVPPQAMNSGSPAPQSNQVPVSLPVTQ

IC50 [1]: 7.66 ± 0.04 µM | PPI inhibitory effect on MED23-IRF7 [2]: did not inhibit these PPIs | inhibition at 10 µM ([4]; ErbB4, 10 μM): 0% | inhibition at 25 µM ([4]; ErbB4, 25 μM): 0% | permeability [5]: reasonable
Structure (SMILES): CC(=O)N1N=C(c2cccc(O)c2)CC1c1ccc(Cl)cc1 (stereo not shown) [Compound 15, 1-[5-(4-Chlorophenyl)-3-(3-hydroxyphenyl)-4,5-dihydropyrazol-1-yl]-ethanone]
HER2 gene expression level [3]: significantly downregulate HER2 gene and protein expression levels in a dose-dependent manner | anticancer effect in TZMB-sensitive cells [6]: significant anticancer effects not only in TZMB-sensitive cells but also in TZMB-resistant cells | anticancer effect in TZMB-resistant cells [7]: significant anticancer effects not only in TZMB-sensitive cells but also in TZMB-resistant cells | tumor growth and volume [8]: significant decrease in tumor growth and volume | body weight [9]: remained generally consistent
